Assay results as given in ChEMBL document CHEMBL3352114, “Synthesis and biological evaluation of unnatural derivatives of narciclasine: 7-aza-nornarciclasine and its N-oxide” (Bioorg Med Chem Lett, 2014).

Experiments:
Assay type in all cases: functional, cell-based; call rule not given here
[1] = tested on: HeLa; experiment: Cytotoxicity against human HeLa cells after 48 hrs by MTT assay
[2] = tested on: MCF7; experiment: Cytotoxicity against human MCF7 cells after 48 hrs by MTT assay
[3] = Cytotoxicity against human BxPC3 cells; details: BXPC-3
[4] = tested on: NCI-H460; experiment: Cytotoxicity against human NCI-H460 cells
[5] = tested on: DU-145; experiment: Cytotoxicity against human DU145 cells
[6] = Homo sapiens, HeLa, 48 h, read-out: IC50
[7] = Homo sapiens, MCF7, 48 h, read-out: IC50

| SMILES | IC50 [1, 6] [µM] | IC50 [2, 7] [µM] | IC50 [3] [µM] | IC50 [4] [µM] | IC50 [5] [µM] | IC50 ([1]; hela) | IC50 ([2]; mcf7) |
| --- | --- | --- | --- | --- | --- | --- | --- |
| O=C1N[C@@H]2C(=C[C@H](O)[C@@H](O)[C@H]2O)c2ccc[n+]([O-])c21 | > 100 | > 100 | – | – | – | – | – |
| O=C1N[C@@H]2C(=C[C@H](O)[C@@H](O)[C@H]2O)c2cc3c(c(O)c21)OCO3 [NARCICLASINE] | – | – | 0.05 | 0.05 | 0.03 | – | – |
| O=C1N[C@@H]2C(=C[C@H](O)[C@@H](O)[C@H]2O)c2cccnc21 [listing 1 of 2 here] | > 100 | > 100 | – | – | – | – | – |
| CC(=O)OC[C@H]1[C@H](O)[C@@H](O)[C@@H](O)[C@@H]2NC(=O)c3c(cc4c(c3O)OCO4)[C@@H]12 | < 0.4 | < 0.4 | 0.07 | – | – | – | – |
| O=C1N[C@@H]2C(=C[C@H](O)[C@@H](O)[C@H]2O)c2cccnc21 [listing 2 of 2 here] | – | – | – | – | – | Not Active | Not Active |
| O=C(OC[C@H]1[C@H](O)[C@@H](O)[C@@H](O)[C@@H]2NC(=O)c3c(cc4c(c3O)OCO4)[C@@H]12)c1ccccc1 | < 0.4 | < 0.4 | 0.01 | 0.03 | 0.01 | – | – |
